The source made the active and inactive calls.
How the values were obtained:
[1] = cytotoxicity toward NIH3T3 fibroblasts, dose response, counter-screen, cell-based, ATP luminescence, mouse fibroblasts (AID 2010); format: functional;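 also: cells exposed to compound for about 90 hours before reading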
[2] = inhibitors of SNCA 5'UTR-driven translation, confirmation, luminescence, H4 neuroglioblastoma cells, dose confirmation (AID 2454); format: functional, cell-based;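 also: H4 neuroglioblastoma cells carrying an alpha-synuclein 5'UTR luciferase reporter; potency for inhibition of the luciferase signal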
[3] = inhibitors of firefly luciferase expression or activity, dose response, H4 neuroglioma cells, luminescence (AID 1990); format: functional, cell-based
[4] = luciferase reporter signal reduction – luminescence, H4-C neuroglioblastoma cells, dose response (AID 2458); format: functional, cell-based;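 also: H4 neuroglioblastoma cells stably carrying a luciferase reporter gene fusion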
cells [5] = format: functional, cell-based
Paired box protein Pax-8 = Paired box protein Pax-8 (Homo sapiens, UniProt Q06710); assay: inhibitors of PAX8-driven TPO luciferase reporter, dose response, RMG-I cells, cherry-pick (AID 687027); format: functional, cell-based;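 also: luciferase reporter driven by Pax8 target thyroperoxidase promoter measured by SteadyGlo luminescence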
[6] = inhibitors of SNCA 5'UTR-driven reporter translation, confirmation, H4 neuroglioma cells, luminescence (AID 1988); format: functional, cell-based
[7] = inhibitors of intracellular T. cruzi replication, confirmation, NIH3T3 host cells, beta-gal luminescence (AID 2044); format: functional, cell-based;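 also: intracellular parasites grown in NIH/3T3 mouse fibroblasts as host cells; luminescent beta-galactosidase reporter signal from transgenic T. cruzi replicating inside host cells; inhibitors lower the luminescence signal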
[8] = Luminescence Cell-Based Dose Response HTS to Identify Inhibitors of 5'UTR Stem-Loop Driven Prion Protein mRNA Translation in H4 Neuroglioblastoma Cells. [Related pubchem assays: 1827 (Project Summary), 1813 (Primary HTS)]; format: functional
[9] = biological target: T1, Alkaline phosphatase, tissue-nonspecific isozyme (Homo sapiens, UniProt P05186)
T1 sequence (P05186 whole entry): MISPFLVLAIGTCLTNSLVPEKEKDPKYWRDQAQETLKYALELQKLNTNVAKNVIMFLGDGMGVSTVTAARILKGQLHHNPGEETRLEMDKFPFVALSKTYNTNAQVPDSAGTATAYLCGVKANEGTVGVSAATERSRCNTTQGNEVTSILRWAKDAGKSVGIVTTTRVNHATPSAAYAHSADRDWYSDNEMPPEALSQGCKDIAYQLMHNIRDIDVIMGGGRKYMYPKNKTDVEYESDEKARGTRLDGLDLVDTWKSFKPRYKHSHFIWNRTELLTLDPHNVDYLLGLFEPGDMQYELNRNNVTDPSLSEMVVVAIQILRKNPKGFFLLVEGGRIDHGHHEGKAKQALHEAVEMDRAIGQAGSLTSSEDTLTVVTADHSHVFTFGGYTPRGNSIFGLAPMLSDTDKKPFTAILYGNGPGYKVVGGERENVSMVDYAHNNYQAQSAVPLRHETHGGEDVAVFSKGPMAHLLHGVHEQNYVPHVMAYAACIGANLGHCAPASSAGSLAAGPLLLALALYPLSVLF

Cytochrome P450 2C19 = Cytochrome P450 2C19 (Homo sapiens, UniProt P33261); assay: Cytochrome panel assay with activity outcomes. Panel member name: p450-cyp2c19 Compounds with AC50 equal or less than 10 uM are considered active; format: functional; conditions: read-out: AC50
[10] = biological target: Photoreceptor-specific nuclear receptor (Homo sapiens, UniProt Q9Y5X4); format: functional;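 also: potency for compounds that break the NR2E3 corepressor complex and count as activators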
Major prion protein = Major prion protein (Homo sapiens, UniProt P04156); format: functional, cell-based
cells [11] = assay: cells
[12] = biological target: Peroxisome proliferator-activated receptor gamma/Nuclear receptor corepressor 2 (Homo sapiens, UniProt P37231+Q9Y618); format: functional
[13] = biological target: T2, Kappa-type opioid receptor (Homo sapiens, UniProt P41145); format: functional
[14] = biological target: Sphingosine 1-phosphate receptor 4 (Homo sapiens, UniProt O95977); assay: Fluorescence dose response cell-based high throughput screening assay for antagonists of the Sphingosine 1-Phosphate Receptor 4 (S1P4). [Related pubchem assays: 1524 (Confirmation in triplicates.), 1510 (Primary screen.)]; format: functional
[15] = biological target: T3, Delta-type opioid receptor (Homo sapiens, UniProt P41143); assay: HTS Image-Based Screen for Antagonists of the DOR Receptor. [Related pubchem assays (depositor defined):AID1777, AID1785, AID1786, AID2133]; format: functional
[16] = biological target: T3, Delta-type opioid receptor; assay: HTS Image-Based Screen for Agonists of the DOR Receptor. [Related pubchem assays (depositor defined):AID1777, AID1786, AID2133]; format: functional
[17] = microbe, parasite or virus in culture; format: functional; conditions: Mycobacterium tuberculosis
INS1 = assay: beta cell apoptosis inhibitors, cytokine rescue, dose response, luminescence, retest (AID 449756); format: functional, cell-based; conditions: Rattus norvegicus;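 also: cell death triggered by IL-1 beta plus TNF-alpha plus IFN-gamma mixture; protective hits raise ATP signal compared with cytokine alone wells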
[18] = biological target: T4, Replicative DNA helicase DnaB (Mycobacterium tuberculosis, UniProt P9WMR3); assay: DnaB intein splicing inhibitors, dose response, biochemical, cell-free fluorescence (AID 449749); format: functional
T4 sequence (P9WMR3 whole entry): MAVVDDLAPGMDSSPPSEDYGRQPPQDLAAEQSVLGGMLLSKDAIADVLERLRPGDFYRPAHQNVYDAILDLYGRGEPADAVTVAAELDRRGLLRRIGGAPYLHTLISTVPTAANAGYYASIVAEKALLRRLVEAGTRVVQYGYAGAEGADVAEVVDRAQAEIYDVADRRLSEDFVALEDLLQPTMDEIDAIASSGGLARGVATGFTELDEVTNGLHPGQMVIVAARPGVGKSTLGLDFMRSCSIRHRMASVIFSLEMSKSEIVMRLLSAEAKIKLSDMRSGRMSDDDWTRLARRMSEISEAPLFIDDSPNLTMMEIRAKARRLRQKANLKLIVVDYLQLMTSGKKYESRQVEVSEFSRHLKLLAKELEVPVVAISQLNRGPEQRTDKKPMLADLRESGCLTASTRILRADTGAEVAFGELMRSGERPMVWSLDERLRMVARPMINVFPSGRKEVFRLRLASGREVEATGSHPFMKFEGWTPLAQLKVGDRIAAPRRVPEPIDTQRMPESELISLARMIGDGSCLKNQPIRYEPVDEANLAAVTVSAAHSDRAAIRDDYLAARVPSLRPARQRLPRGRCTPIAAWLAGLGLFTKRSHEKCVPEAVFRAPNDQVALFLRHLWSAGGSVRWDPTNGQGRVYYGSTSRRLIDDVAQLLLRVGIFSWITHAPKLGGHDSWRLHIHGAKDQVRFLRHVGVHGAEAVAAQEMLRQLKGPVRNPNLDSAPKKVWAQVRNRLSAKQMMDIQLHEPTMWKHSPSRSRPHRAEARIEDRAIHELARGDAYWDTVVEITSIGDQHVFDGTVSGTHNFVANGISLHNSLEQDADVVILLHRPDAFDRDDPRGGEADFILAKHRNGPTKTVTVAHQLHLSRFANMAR

[19] = Vero cell cytotoxicity, dose response, cytotoxicity control for Vif-APOBEC3G degradation inhibitor project, Vero cells (AID 1117358); format: functional; conditions: Human immunodeficiency virus 1, Vero
[20] = biological target: Peroxisome proliferator-activated receptor gamma/Nuclear receptor coactivator 3 (Homo sapiens, UniProt P37231); assay: (§1) TR-FRET dose response biochemical High Throughput Screening assay for agonists of the steroid receptor coactivator 3 (SRC-3) recruitment by the peroxisome proliferator-activated receptor gamma (PPAR gamma): non-selective agonists. [Related pubchem assays: 1301 (Confirmation screen.), 1048 (Primary screen.)]; format: functional
Beta-galactosidase = Beta-galactosidase (Escherichia coli, UniProt Q8VNN2); format: functional
Protein RecA = biological target: T5, Protein RecA (Mycobacterium tuberculosis, UniProt P9WHJ3); assay: Fluorescence Cell-Free Homogeneous Dose Retest to Identify Inhibitors of RecA-Intein Splicing Activity. [Related pubchem assays (depositor defined):AID2097, AID2223, AID489010, AID492950]; format: functional
T5 sequence (P9WHJ3 whole entry): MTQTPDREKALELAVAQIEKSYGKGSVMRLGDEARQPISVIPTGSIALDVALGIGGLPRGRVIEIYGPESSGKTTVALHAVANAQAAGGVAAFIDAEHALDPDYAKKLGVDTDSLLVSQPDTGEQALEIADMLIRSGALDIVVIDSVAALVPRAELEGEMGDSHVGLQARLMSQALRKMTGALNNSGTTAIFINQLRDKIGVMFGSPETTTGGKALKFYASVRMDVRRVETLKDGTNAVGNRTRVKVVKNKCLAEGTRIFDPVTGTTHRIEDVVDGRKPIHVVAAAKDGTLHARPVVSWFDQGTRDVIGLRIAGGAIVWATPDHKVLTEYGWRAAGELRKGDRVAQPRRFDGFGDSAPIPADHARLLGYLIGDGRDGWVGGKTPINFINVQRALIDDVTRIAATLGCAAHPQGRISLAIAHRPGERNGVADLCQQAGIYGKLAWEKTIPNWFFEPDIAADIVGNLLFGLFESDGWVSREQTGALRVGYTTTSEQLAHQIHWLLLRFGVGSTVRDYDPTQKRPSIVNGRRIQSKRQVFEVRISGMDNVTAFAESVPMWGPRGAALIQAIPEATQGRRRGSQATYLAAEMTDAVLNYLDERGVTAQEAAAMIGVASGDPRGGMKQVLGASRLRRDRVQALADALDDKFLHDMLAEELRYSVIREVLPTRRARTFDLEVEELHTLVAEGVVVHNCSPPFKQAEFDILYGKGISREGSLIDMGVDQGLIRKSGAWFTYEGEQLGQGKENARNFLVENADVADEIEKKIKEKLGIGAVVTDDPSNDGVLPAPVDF

[21] = biological target: Sphingosine 1-phosphate receptor 1 (Homo sapiens, UniProt P21453); format: functional;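 also: Tango beta-arrestin reporter U2OS cells stimulated with S1P near its EC80; inhibitor potency meaning antagonism of receptor activation by the natural agonist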
[22] = biological target: T2, Kappa-type opioid receptor; format: functional; remark: listed apart in the source
[23] = biological target: G-protein coupled receptor 55 (Homo sapiens, UniProt Q9Y2T6); assay: GPR55 antagonists blocking LPI-driven arrestin recruitment, primary screen, imaging, U2OS, beta-arrestin-GFP, LPI agonist (AID 2013); format: functional;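 also: antagonist potency measured as reduced agonist-driven arrestin aggregation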
Mu-type opioid receptor = Mu-type opioid receptor (Homo sapiens, UniProt P35372); assay: HTS Image-Based Screen for Agonists of the MOR Receptor. [Related pubchem assays (depositor defined):AID1777, AID1785, AID1786, AID2133]; format: functional;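 also: imaging of beta-arrestin GFP recruitment into spots after receptor activation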
[24] = biological target: Peroxisome proliferator-activated receptor gamma/Nuclear receptor coactivator 1 (Homo sapiens, UniProt P37231); assay: as §1, with “1 (SRC-1)” for “3 (SRC-3)”, “assays (depositor defined):AID1300, AID1808, AID504735, AID631]” for “assays: 1301 (Confirmation screen.), 1048 (Primary screen.)]”; format: protein assay
[25] = biological target: Peroxisome proliferator-activated receptor gamma/Nuclear receptor coactivator 2 (Homo sapiens, UniProt P37231); assay: TR-FRET dose response biochemical High Throughput Screening assay for agonists of the steroid receptor coactivator 2 (SRC-2) recruitment by the peroxisome proliferator-activated receptor gamma (PPAR gamma): non-selective agonists. [Related pubchem assays: 1297, 1032 ]; format: functional

T2 sequence (P41145 whole entry): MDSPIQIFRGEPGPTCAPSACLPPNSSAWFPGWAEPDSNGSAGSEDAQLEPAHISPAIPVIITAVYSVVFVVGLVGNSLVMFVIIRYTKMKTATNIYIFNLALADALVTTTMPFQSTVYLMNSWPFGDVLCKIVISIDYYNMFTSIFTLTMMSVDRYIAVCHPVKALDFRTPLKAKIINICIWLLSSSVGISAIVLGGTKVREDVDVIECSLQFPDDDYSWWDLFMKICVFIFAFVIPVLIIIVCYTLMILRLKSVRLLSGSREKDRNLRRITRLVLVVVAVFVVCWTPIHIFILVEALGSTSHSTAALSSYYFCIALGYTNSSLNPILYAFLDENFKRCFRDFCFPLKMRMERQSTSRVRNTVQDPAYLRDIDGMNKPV
T3 sequence (P41143 whole entry): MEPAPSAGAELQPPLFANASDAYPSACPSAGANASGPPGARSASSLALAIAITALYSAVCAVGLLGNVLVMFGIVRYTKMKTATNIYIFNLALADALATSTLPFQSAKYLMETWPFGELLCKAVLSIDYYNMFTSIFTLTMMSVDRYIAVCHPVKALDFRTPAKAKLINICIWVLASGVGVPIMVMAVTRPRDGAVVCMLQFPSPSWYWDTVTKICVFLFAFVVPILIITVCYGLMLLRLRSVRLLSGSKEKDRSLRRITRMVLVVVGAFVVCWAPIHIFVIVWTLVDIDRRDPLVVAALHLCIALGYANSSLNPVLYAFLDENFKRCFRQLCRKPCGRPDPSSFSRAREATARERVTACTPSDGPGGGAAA
Chain of G-protein coupled receptor 55 (Q9Y2T6 whole entry): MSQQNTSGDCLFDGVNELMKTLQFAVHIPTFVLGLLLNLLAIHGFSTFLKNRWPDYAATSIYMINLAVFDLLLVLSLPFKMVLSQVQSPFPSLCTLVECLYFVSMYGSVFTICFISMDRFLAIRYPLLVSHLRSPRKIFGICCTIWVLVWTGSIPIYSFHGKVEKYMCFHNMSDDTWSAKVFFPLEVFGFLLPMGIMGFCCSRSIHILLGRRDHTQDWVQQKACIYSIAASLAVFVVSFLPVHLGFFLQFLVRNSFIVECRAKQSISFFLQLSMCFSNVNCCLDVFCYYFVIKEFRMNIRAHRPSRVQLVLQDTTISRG
Chain of Sphingosine 1-phosphate receptor 4 (O95977 whole entry): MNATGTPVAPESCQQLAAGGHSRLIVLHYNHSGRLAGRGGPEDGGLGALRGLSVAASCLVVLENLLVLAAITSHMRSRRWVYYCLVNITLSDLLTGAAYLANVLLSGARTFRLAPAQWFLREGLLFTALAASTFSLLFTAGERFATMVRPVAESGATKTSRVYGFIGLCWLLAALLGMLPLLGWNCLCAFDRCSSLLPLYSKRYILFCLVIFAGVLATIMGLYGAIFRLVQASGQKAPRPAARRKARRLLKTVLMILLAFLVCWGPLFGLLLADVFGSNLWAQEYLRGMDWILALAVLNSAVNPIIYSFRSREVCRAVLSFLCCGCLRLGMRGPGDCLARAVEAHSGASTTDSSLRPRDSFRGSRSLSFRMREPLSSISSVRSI
Chain of Cytochrome P450 2C19 (P33261 whole entry): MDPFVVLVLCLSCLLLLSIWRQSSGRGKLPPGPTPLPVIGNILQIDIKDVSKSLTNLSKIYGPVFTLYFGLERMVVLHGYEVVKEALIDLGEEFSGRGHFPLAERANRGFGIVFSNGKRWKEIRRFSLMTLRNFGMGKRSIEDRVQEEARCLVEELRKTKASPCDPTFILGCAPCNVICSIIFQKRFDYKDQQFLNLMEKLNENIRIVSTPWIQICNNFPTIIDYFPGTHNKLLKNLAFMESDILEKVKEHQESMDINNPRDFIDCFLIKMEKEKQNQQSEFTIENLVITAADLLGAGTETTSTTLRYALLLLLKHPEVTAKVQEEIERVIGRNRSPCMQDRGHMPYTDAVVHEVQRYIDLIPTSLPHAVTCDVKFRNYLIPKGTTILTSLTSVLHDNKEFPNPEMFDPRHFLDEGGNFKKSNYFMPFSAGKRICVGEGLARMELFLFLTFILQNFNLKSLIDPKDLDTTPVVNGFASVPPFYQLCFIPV
Chain of Photoreceptor-specific nuclear receptor (Q9Y5X4 whole entry): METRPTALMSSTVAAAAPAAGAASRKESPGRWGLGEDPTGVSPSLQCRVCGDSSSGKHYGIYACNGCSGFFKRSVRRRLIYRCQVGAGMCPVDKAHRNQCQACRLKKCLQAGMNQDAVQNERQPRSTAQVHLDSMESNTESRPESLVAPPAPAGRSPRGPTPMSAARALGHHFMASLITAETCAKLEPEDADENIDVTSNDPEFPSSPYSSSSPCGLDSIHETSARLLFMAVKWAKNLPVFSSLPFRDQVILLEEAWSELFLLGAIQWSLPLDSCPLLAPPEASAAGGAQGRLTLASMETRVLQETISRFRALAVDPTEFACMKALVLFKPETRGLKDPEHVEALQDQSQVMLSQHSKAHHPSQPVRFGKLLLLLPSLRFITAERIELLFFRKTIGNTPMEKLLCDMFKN
Chain of Mu-type opioid receptor (P35372 whole entry): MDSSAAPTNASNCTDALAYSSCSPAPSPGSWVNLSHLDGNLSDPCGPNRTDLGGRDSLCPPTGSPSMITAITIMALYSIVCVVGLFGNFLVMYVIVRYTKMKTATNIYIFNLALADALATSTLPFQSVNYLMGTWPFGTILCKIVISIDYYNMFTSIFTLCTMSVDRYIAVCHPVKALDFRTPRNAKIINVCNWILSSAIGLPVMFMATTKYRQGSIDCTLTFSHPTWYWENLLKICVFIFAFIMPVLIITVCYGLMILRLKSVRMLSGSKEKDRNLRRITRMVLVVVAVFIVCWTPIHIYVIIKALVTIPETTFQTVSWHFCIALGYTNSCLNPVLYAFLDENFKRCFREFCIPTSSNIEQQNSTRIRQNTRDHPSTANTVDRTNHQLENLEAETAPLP
Chain of Paired box protein Pax-8 (Q06710 whole entry): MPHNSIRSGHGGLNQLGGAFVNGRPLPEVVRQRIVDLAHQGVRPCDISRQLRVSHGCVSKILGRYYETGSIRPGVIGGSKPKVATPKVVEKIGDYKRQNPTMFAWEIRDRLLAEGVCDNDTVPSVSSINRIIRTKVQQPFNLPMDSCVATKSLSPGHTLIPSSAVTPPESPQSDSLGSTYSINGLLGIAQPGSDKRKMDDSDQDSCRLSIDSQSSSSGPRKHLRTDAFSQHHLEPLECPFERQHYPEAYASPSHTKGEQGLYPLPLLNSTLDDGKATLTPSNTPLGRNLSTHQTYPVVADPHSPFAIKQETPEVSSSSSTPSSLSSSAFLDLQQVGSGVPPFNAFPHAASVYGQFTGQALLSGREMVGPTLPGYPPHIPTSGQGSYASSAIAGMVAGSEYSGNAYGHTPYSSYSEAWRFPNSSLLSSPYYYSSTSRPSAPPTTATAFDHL
Chain of Sphingosine 1-phosphate receptor 1 (P21453 whole entry): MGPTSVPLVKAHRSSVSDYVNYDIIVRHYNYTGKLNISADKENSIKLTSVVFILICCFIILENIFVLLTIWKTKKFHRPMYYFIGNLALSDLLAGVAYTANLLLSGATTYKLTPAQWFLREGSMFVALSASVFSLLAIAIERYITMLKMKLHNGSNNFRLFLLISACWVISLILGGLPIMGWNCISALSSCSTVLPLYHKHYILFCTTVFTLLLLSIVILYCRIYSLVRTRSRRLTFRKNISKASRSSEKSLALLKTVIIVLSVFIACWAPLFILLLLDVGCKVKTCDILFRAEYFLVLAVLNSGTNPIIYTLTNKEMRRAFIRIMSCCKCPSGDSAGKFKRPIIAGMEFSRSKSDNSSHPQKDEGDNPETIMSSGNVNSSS
Chain of Beta-galactosidase (Q8VNN2 whole entry): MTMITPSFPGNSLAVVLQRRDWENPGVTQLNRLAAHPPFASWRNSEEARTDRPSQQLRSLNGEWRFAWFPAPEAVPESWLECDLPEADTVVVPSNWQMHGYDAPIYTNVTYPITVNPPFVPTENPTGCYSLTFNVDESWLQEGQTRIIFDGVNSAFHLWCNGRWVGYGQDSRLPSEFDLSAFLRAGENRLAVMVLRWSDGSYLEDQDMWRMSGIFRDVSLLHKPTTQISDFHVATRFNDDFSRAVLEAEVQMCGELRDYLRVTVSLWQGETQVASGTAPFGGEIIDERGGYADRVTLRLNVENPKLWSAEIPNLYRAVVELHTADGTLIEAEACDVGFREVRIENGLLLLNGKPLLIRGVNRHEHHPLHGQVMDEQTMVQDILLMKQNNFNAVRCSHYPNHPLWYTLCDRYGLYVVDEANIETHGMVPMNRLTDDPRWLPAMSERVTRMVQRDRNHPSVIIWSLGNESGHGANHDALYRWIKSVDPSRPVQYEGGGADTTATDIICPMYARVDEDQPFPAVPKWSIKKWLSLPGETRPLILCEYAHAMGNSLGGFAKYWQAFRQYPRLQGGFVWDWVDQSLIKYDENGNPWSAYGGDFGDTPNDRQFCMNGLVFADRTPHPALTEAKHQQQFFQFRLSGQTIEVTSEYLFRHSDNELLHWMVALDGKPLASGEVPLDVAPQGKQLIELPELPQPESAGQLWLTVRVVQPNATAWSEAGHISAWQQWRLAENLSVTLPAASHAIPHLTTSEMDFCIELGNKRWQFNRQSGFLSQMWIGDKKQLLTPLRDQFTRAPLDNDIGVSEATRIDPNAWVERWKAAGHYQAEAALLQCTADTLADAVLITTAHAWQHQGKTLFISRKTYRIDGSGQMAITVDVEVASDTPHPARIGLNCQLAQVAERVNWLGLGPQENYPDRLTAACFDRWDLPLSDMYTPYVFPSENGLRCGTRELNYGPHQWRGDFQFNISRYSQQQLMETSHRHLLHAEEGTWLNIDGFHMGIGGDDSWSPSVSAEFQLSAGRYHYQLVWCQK

## CC(=O)OC(C)(C)/C=C/C(=O)C(C)(O)C1[C@H](O)C[C@@]2(C)C3CC=C4C(CC[C@@H](O)C4(C)C)[C@]3(CO)C(=O)C[C@]12C (stereo not given in full)
[1]
  EC50: 8.65 µM (active)
[2]
  EC50: 0.082 µM (active)
[3]
  EC50: < 0.1 µM (active)
[4]
  EC50: 0.083 µM (active)
Cells [5]
  EC50: 0.08 µM (active)
Paired box protein Pax-8
  AC50: < 0.26 µM (active)
[6]
  EC50: < 0.1 µM (active)
[7]
  EC50: 0.33 µM (active)
[8]
  EC50: < 0.1 µM (active)

## CCOC1Cc2ccccc2N(C(N)=O)c2ccccc21 (stereo not given)
[9]
  EC50: > 100 µM (not active)

## CCc1c(C(=O)O)[nH]c2ccc(Br)cc12
Cytochrome P450 2C19
  AC50: 11.2 µM (inconclusive)
[10]
  IC50: 6.41 µM (active)
Major prion protein
  IC50: 5.95 µM (active)
Cells [11]
  IC50: > 138 µM (inactive)
[12]
  IC50: 7.33 µM (active)

## O=C(OCn1ncc(Br)c(Br)c1=O)c1ccc(F)cc1
[13]
  IC50: 6.83 µM
[14]
  IC50: 1.66 µM (active)
[3]
  EC50: > 120 µM (not active)
[15]
  IC50: 10.3 µM (inactive)
[16]
  EC50: > 32 µM (inactive)
[17]
  CC50: 9.1 µM (active)
INS1
  AC50: 4.94 µM (active)
[18]
  AC50: 2.02 µM (active)
[19]
  CC50: 8.69 µM (active)
[20]
  EC50: > 79.4 µM (not active)
Beta-galactosidase
  EC50: > 31.5 µM (inactive)
[6]
  EC50: > 120 µM (not active)
Protein RecA
  EC50: 0.473 µM (active)
[21]
  IC50: 13.6 µM (not active)
[22]
  IC50: 18.8 µM (active)
[23]
  IC50: 5.05 µM (active)
Mu-type opioid receptor
  EC50: > 32 µM (inactive)
[8]
  EC50: 5.79 µM (active)
[24]
  EC50: > 79.4 µM (inactive)
[25]
  EC50: 72.3 µM (not active)
